Reference: patent US9242973B2, “Chromane compounds” (CoMentis, Inc., priority 2012, dated 2016)

tested on: Aβ production in SK-N-BE(2) neuroblastoma cells; assay: Test Example 3: Aβ production inhibition in cell (Aβ40 ELISA, SK-N-BE(2)); details: Homo sapiens, SKNBE2, 6 h, read-out: Test Example 3 IC50, SK-N-BE(2) cells, 6 hours, Aβ40 ELISA normalized by viability

Row | Compound | IC50 [nM]
1 | CC#Cc1cncc(-c2ccc3c(c2)C2(CSC(N)=N2)C2(COC2)CO3)c1 (centres unmarked) [RP 68] | 500
2 | CC1(C)Oc2ccc(-c3cncnc3)cc2C2(COC(N)=N2)C12COC2 (centres unmarked) [RP 69] | 40
3 | NC1=NC2(CO1)c1cc(-c3cncc(F)c3)ccc1OC1(CCC1)C21COC1 (centres unmarked) [RP 70] | 960
4 | NC1=NC2(CO1)c1cc(-c3cccnc3F)ccc1OC1(CCC1)C21COC1 (centres unmarked) [RP 71] | 110
5 | COc1cncc(-c2ccc3c(c2)C2(COC(N)=N2)C2(COC2)C2(CCC2)O3)c1 (centres unmarked) [RP 72] | 68
6 | NC1=NC2(CO1)c1cc(-c3cc(Cl)cnc3F)ccc1OC1(CCC1)C21COC1 (centres unmarked) [RP 73] | 70
7 | Cc1cncc(-c2ccc3c(c2)C2(COC(N)=N2)C2(COC2)C2(CCC2)O3)c1 (centres unmarked) [RP 75, 6′-(5-methylpyridin-3-yl)trispiro[cyclobutane-1,2′-chromene-4′,4″-[1,3]oxazole-3′,3′″-oxetan]-2″-amine] | 1100
8 | CC1(C)Oc2ccc(-c3cccnc3F)cc2C2(COC(N)=N2)C12COC2 (centres unmarked) [RP 82] | 36
9 | CCC1Oc2ccc(-c3cncnc3)cc2C2(COC(N)=N2)C12COC2 (centres unmarked) [RP 84] | 410
10 | NC1=NC2(CO1)c1cc(-c3cncnc3)ccc1OC1(CCCC1)C21COC1 (centres unmarked) [RP 85] | 77
11 | CC#Cc1cncc(-c2ccc3c(c2)C2(COC(N)=N2)C2(COC2)C(CC)O3)c1 (centres unmarked) [RP 86] | 58
12 | NC1=NC2(CO1)c1cc(-c3cncnc3)ccc1OC(C1CC1)C21COC1 (centres unmarked) [RP 88] | 1400
13 | CCCC1Oc2ccc(-c3cncnc3)cc2C2(COC(N)=N2)C12COC2 (centres unmarked) [RP 91] | 340
14 | CC#Cc1cncc(-c2ccc3c(c2)C2(COC(N)=N2)C2(COC2)C(CCC)O3)c1 (centres unmarked) [RP 92] | 37
15 | CC(C)CC1Oc2ccc(-c3cncnc3)cc2C2(COC(N)=N2)C12COC2 (centres unmarked) [RP 93] | 370
16 | CC#Cc1cncc(-c2ccc3c(c2)C2(COC(N)=N2)C2(COC2)C(CCC(F)(F)F)O3)c1 (centres unmarked) [RP 96] | 22
17 | NC1=NC2(CO1)c1cc(-c3cncnc3)ccc1OCC21CCCO1 (centres unmarked) [RP 97] | 2600
18 | NC1=NC2(CO1)c1cc(-c3cncc(C(F)(F)F)c3)ccc1OC1(CCC1)C21COC1 (centres unmarked) [RP 99] | 1900
19 | NC1=NC2(CO1)c1cc(-c3cncnc3)ccc1OCC21CC1 (centres unmarked) [RP 100] | 250
20 | NC1=NC2(CO1)c1cc(-c3cncnc3)c(F)cc1OCC21CC1 (centres unmarked) [RP 102] | 240
21 | NC1=NC2(CO1)c1cc(-c3cccnc3F)ccc1OCC21CC1 (centres unmarked) [RP 103] | 450
22 | COc1cncc(-c2ccc3c(c2)C2(COC(N)=N2)C2(CC2)CO3)c1 (centres unmarked) [RP 105] | 340
23 | CCOc1cncc(-c2ccc3c(c2)C2(COC(N)=N2)C2(CC2)CO3)c1 (centres unmarked) [RP 106] | 160
24 | NC1=NC2(CO1)c1cc(-c3cncc(Cl)c3)ccc1OCC21CC1 (centres unmarked) [RP 107] | 460
25 | CC#Cc1cncc(-c2ccc3c(c2)C2(COC(N)=N2)C2(COC2)C2(CCC2)O3)c1 (centres unmarked) [RP 109] | 48
26 | CC#Cc1cncc(-c2ccc3c(c2)C2(COC(N)=N2)C2(COC2)C(C)(C)O3)c1 (centres unmarked) [RP 110] | 9.2
27 | CC#Cc1cncc(-c2ccc3c(c2)C2(COC(N)=N2)C2(CC2)CO3)c1 (centres unmarked) [RP 111] | 140

Row | Compound | IC50 [nM]
28 | CC#Cc1cncc(-c2cc3c(cc2F)OCC2(CC2)C32COC(N)=N2)c1 (centres unmarked) [RP 112] | 660
29 | CC#Cc1cncc(-c2ccc3c(c2)C2(COC(N)=N2)C2(CCC2)CO3)c1 (centres unmarked) [RP 113] | 470
30 | N#Cc1ncccc1-c1ccc2c(c1)C1(COC(N)=N1)C1(COC1)C1(CCC1)O2 (centres unmarked) [RP 115, 3-(2″-aminotrispiro[cyclobutane-1,2′-chromene-4′,4″-[1,3]oxazole-3′,3′″-oxetan]-6′-yl)pyridine-2-carbonitrile] | 1100
31 | NC1=NC2(CO1)c1cc(-c3cncc(C(F)F)c3)ccc1OC1(CCC1)C21COC1 (centres unmarked) [RP 118] | 990
32 | N#Cc1cncc(-c2ccc3c(c2)C2(COC(N)=N2)C2(COC2)C2(CCC2)O3)c1 (centres unmarked) [RP 120] | 2300
33 | COc1cc(-c2ccc3c(c2)C2(COC(N)=N2)C2(COC2)C2(CCC2)O3)c(F)cn1 (centres unmarked) [RP 122] | 1100
34 | NC1=NC2(CO1)c1cc(-c3cccc(F)c3)ccc1OC1(CCC1)C21COC1 (centres unmarked) [RP 125] | 580
35 | COc1cccc(-c2ccc3c(c2)C2(COC(N)=N2)C2(COC2)C2(CCC2)O3)c1 (centres unmarked) [RP 126] | 1200
36 | Cc1cccc(-c2ccc3c(c2)C2(COC(N)=N2)C2(COC2)C2(CCC2)O3)c1 (centres unmarked) [RP 127] | 1800
37 | N#Cc1cccc(-c2ccc3c(c2)C2(COC(N)=N2)C2(COC2)C2(CCC2)O3)c1 (centres unmarked) [RP 128] | 1500
38 | CCOc1cc(-c2ccc3c(c2)C2(COC(N)=N2)C2(COC2)C2(CCC2)O3)cc(C(F)(F)F)c1 (centres unmarked) [RP 129] | 7300
39 | NC1=NC2(CO1)c1cc(-c3cc(F)ccc3F)ccc1OC1(CCC1)C21COC1 (centres unmarked) [RP 130] | 1700
40 | CCOc1cccc(-c2ccc3c(c2)C2(COC(N)=N2)C2(COC2)C2(CCC2)O3)c1 (centres unmarked) [RP 131] | 3200
41 | N#C/C=C/c1cccc(-c2ccc3c(c2)C2(COC(N)=N2)C2(COC2)C2(CCC2)O3)c1 (centres unmarked) [RP 132] | 1200
42 | CCOc1cc(F)cc(-c2ccc3c(c2)C2(COC(N)=N2)C2(COC2)C2(CCC2)O3)c1 (centres unmarked) [RP 133] | 2800
43 | NC1=NC2(CO1)c1cc(C3=CCCCC3)ccc1OC1(CCC1)C21COC1 (centres unmarked) [RP 135] | 1800
44 | COc1ccc(F)c(-c2ccc3c(c2)C2(COC(N)=N2)C2(COC2)C2(CCC2)O3)c1 (centres unmarked) [RP 136, 6′-(2-fluoro-5-methoxyphenyl)trispiro[cyclobutane-1,2′-chromene-4′,4″-[1,3]oxazole-3′,3′″-oxetan]-2″-amine] | 660
45 | COc1cccc(-c2ccc3c(c2)C2(COC(N)=N2)C2(COC2)C2(CCC2)O3)c1F (centres unmarked) [RP 137] | 830
46 | NC1=NC2(CO1)c1cc(-c3cccc(F)c3F)ccc1OC1(CCC1)C21COC1 (centres unmarked) [RP 138] | 1500
47 | CC1(C)Oc2ccc(-c3cccc(Cl)c3)cc2C2(COC(N)=N2)C12COC2 (centres unmarked) [RP 139] | 140
48 | CC1(C)Oc2ccc(-c3cccc(C4CC4)c3)cc2C2(COC(N)=N2)C12COC2 (centres unmarked) [RP 140] | 410
49 | CC1(C)Oc2ccc(-c3cccc(C(F)(F)F)c3)cc2C2(COC(N)=N2)C12COC2 (centres unmarked) [RP 141] | 1300
50 | COc1cccc(-c2ccc3c(c2)C2(COC(N)=N2)C2(COC2)C(C)(C)O3)c1 (centres unmarked) [RP 142] | 150
51 | CCOc1cccc(-c2ccc3c(c2)C2(COC(N)=N2)C2(COC2)C(C)(C)O3)c1 (centres unmarked) [RP 144] | 460
52 | CC1(C)Oc2ccc(-c3cc(F)cc(Cl)c3)cc2C2(COC(N)=N2)C12COC2 (centres unmarked) [RP 146, 6′-(3-chloro-5-fluorophenyl)-2′,2′-dimethyldispiro[1,3-oxazole-4,4′-chromene-3′,3″-oxetan]-2-amine] | 210
53 | CC1(C)Oc2ccc(-c3cc(F)cc(F)c3)cc2C2(COC(N)=N2)C12COC2 (centres unmarked) [RP 147] | 170
54 | Cc1cc(F)cc(-c2ccc3c(c2)C2(COC(N)=N2)C2(COC2)C(C)(C)O3)c1 (centres unmarked) [RP 148] | 480

Row | Compound | IC50 [nM]
55 | CC1(C)Oc2ccc(-c3cc(F)ccn3)cc2C2(COC(N)=N2)C12COC2 (centres unmarked) [RP 149] | 1100
56 | CC1(C)Oc2ccc(-c3cncc(Cl)n3)cc2C2(COC(N)=N2)C12COC2 (centres unmarked) [RP 150] | 450
57 | Cc1cnc(Cl)c(-c2ccc3c(c2)C2(COC(N)=N2)C2(COC2)C(C)(C)O3)c1 (centres unmarked) [RP 151] | 280
58 | CC1(C)Oc2ccc(-c3cc(Cl)cnc3Cl)cc2C2(COC(N)=N2)C12COC2 (centres unmarked) [RP 152] | 110
59 | CC1(C)Oc2ccc(-c3cc(F)cnc3Cl)cc2C2(COC(N)=N2)C12COC2 (centres unmarked) [RP 153] | 130
60 | CC1(C)Oc2ccc(-c3cc(Cl)cnc3F)cc2C2(COC(N)=N2)C12COC2 (centres unmarked) [RP 154] | 32
61 | COc1ncc(Cl)cc1-c1ccc2c(c1)C1(COC(N)=N1)C1(COC1)C(C)(C)O2 (centres unmarked) [RP 155] | 630
62 | CC1(C)Oc2ccc(-c3cccnc3Cl)cc2C2(COC(N)=N2)C12COC2 (centres unmarked) [RP 156] | 180
63 | Cc1cc(-c2ccc3c(c2)C2(COC(N)=N2)C2(COC2)C(C)(C)O3)cnc1F (centres unmarked) [RP 157] | 660
64 | CC1(C)Oc2ccc(-c3cc(F)ncc3Cl)cc2C2(COC(N)=N2)C12COC2 (centres unmarked) [RP 158] | 370
65 | CC1(C)Oc2ccc(-c3cnc4[nH]ccc4c3)cc2C2(COC(N)=N2)C12COC2 (centres unmarked) [RP 168] | 310
66 | CC1(C)Oc2ccc(-c3cc(C#N)ccc3F)cc2C2(COC(N)=N2)C12COC2 (centres unmarked) [RP 170] | 400
67 | CNC(=O)c1cc(F)cc(-c2ccc3c(c2)C2(COC(N)=N2)C2(COC2)C(C)(C)O3)c1 (centres unmarked) [RP 171] | 3100
68 | CC1(C)Oc2ccc(-c3cncc(Cl)c3)cc2C2(COC(N)=N2)C12COC2 (centres unmarked) [RP 173] | 73
69 | CC1(C)Oc2ccc(-c3ccc4[nH]ccc4c3)cc2C2(COC(N)=N2)C12COC2 (centres unmarked) [RP 174, 6′-(1H-indol-5-yl)-2′,2′-dimethyldispiro[1,3-oxazole-4,4′-chromene-3′,3″-oxetan]-2-amine] | 3400
70 | CC1(C)Oc2ccc(-c3cccc4[nH]ncc34)cc2C2(COC(N)=N2)C12COC2 (centres unmarked) [RP 176] | 850
71 | CC1(C)Oc2ccc(-c3ccc4[nH]ncc4c3)cc2C2(COC(N)=N2)C12COC2 (centres unmarked) [RP 177] | 1500
72 | CC1(C)Oc2ccc(-c3ccc4nonc4c3)cc2C2(COC(N)=N2)C12COC2 (centres unmarked) [RP 178] | 810
73 | CC1(C)Oc2ccc(-c3cccc4cccnc34)cc2C2(COC(N)=N2)C12COC2 (centres unmarked) [RP 179] | 1400
74 | CC1(C)Oc2ccc(-c3cccc4cnccc34)cc2C2(COC(N)=N2)C12COC2 (centres unmarked) [RP 180] | 490
75 | COC/C=C/c1ccc2c(c1)C1(COC(N)=N1)C1(COC1)C(C)(C)O2 (centres unmarked) [RP 181] | 820
76 | CC1(C)Oc2ccc(-c3ccc4c(c3)OCO4)cc2C2(COC(N)=N2)C12COC2 (centres unmarked) [RP 182] | 2500
77 | CC1(C)Oc2ccc(-c3c(F)ccc(F)c3F)cc2C2(COC(N)=N2)C12COC2 (centres unmarked) [RP 185] | 760
78 | NC1=NC2(CO1)c1cc(NC(=O)c3ncc(Br)cn3)ccc1OCC21CC1 (centres unmarked) [RP 189] | 43
79 | COc1cnc(C(=O)Nc2ccc3c(c2)C2(COC(N)=N2)C2(CC2)CO3)cn1 (centres unmarked) [RP 193] | 81
80 | N#Cc1ccc(C(=O)Nc2ccc3c(c2)C2(COC(N)=N2)C2(CC2)CO3)nc1 (centres unmarked) [RP 196] | 53
